{
  "source": "patent US20140219931A1",
  "about": "“P-MENTHANE-3,8-DIOL ISOMER MIXTURE, COOLING SENSATION COMPOSITION COMPRISING THE SAME, AND PRODUCT COMPRISING THE COOLING SENSATION COMPOSITION” (TAKASAGO INTERNATIONAL CORPORATION, priority 2011, published 2014)",
  "key": {"[1]": {"system": "mouth of professional panelists", "assay": "Test Experiment 2: sensory evaluation of cooling sensation persistence in the mouth", "format": "in vivo, human", "settings": "for Cooling sensation persistence time: 180 ppm aqueous solution retained in the mouth 30 seconds, then spit out, time until cooling sensation disappeared, average of 10 panelists; for persistence of cooling sensation effect relative to the (1R)-p-menthane-3,8-diol isomer mixture: 180 ppm aqueous solution, from Table 2", "procedure": "(§1) [Test Experiment 2] Sensory Evaluation for Comparison of Cooling Sensation Persistence between (1S)-p-Menthane-3,8-diol Isomer Mixture, (1RS)-p-Menthane-3,8-diol Isomer Mixture, and (1R)-p-Menthane-3,8-diol Isomer Mixture Aqueous solutions containing 180 ppm of the (1S)-p-menthane-3,8-diol isomer mixture, the (1RS)-p-menthane-3,8-diol isomer mixture, and the (1R)-p-menthane-3,8-diol isomer mixture obtained in Example 1, Example 2, and Comparative Example 1, respectively, were prepared. Sensory evaluation was conducted in the mouth on these 180 ppm aqueous solutions by 10 professional panelists having 5-year or longer experience. In the sensory evaluation, each 180 ppm aqueous solution was retained in the month for 30 seconds, and then spit out. After that, the time taken until the cooling sensation disappeared was measured, and the average was calculated to evaluate the effect."}, "[2]": {"system": "mouth of professional panelists", "assay": "Test Experiment 1: sensory evaluation of cooling sensation strength in the mouth", "format": "in vivo, human", "settings": "180 ppm aqueous solution in the mouth, 10 panelists; relative score, Comparative Example 1 taken as 3", "procedure": "as §1, with “1]” for “2]”, “Strength” for “Persistence”, “experience.” for “experience. In the sensory evaluation, each 180 ppm aqueous solution was retained in the month for 30 seconds, and then spit out. After that, the time taken until the cooling sensation disappeared was measured, and the average was calculated to evaluate the effect.”"}},
  "data": [
    {"smiles": "C[C@H]1CCC(C(C)(C)O)C(O)C1", "note": "(mixture of isomers) [Example 1, (1S)-p-menthane-3,8-diol isomer mixture]", "values": [
      {"measurement": "Cooling sensation persistence time", "setting": "[1]", "result": 15.5, "unit": "min"},
      {"measurement": "persistence of cooling sensation effect relative to the (1R)-p-menthane-3,8-diol isomer mixture", "setting": "[1]", "result": "approximately 3.6 times"},
      {"measurement": "Average cooling sensation strength score", "setting": "[2]", "result": 15}
    ]},
    {"smiles": "C[C@@H]1CCC(C(C)(C)O)C(O)C1", "note": "(mixture of isomers) [Comparative Example 1, (1R)-p-menthane-3,8-diol isomer mixture, reference compound]", "values": [
      {"measurement": "Cooling sensation persistence time", "setting": "[1]", "result": 4.3, "unit": "min"},
      {"measurement": "Average cooling sensation strength score", "setting": "[2]", "result": 3}
    ]},
    {"smiles": "CC1CCC(C(C)(C)O)C(O)C1", "note": "(racemic) [Example 2, (1RS)-p-menthane-3,8-diol isomer mixture]", "values": [
      {"measurement": "Cooling sensation persistence time", "setting": "[1]", "result": 9.8, "unit": "min"},
      {"measurement": "persistence of cooling sensation effect relative to the (1R)-p-menthane-3,8-diol isomer mixture", "setting": "[1]", "result": "approximately 2.3 times"},
      {"measurement": "Average cooling sensation strength score", "setting": "[2]", "result": 9}
    ]}
  ]
}
